Where two headings read alike, the source gives them in different places.
Experiments:
[1] = test system: phosphorylation of Akt at Serine 473 in U87 MG cells; test: cells; settings: Homo sapiens, U-87 MG, 2 h
[2] = target: PI3Kα (Homo sapiens (Human), UniProt P42336); settings: read-out: PI3Kα AlphaScreen ® Ki
[3] = read-out: U87Cell IC50, pAkt (Ser 473), U87 MG cells, two hours with compound

Sequence of PI3Kα (P42336 whole entry): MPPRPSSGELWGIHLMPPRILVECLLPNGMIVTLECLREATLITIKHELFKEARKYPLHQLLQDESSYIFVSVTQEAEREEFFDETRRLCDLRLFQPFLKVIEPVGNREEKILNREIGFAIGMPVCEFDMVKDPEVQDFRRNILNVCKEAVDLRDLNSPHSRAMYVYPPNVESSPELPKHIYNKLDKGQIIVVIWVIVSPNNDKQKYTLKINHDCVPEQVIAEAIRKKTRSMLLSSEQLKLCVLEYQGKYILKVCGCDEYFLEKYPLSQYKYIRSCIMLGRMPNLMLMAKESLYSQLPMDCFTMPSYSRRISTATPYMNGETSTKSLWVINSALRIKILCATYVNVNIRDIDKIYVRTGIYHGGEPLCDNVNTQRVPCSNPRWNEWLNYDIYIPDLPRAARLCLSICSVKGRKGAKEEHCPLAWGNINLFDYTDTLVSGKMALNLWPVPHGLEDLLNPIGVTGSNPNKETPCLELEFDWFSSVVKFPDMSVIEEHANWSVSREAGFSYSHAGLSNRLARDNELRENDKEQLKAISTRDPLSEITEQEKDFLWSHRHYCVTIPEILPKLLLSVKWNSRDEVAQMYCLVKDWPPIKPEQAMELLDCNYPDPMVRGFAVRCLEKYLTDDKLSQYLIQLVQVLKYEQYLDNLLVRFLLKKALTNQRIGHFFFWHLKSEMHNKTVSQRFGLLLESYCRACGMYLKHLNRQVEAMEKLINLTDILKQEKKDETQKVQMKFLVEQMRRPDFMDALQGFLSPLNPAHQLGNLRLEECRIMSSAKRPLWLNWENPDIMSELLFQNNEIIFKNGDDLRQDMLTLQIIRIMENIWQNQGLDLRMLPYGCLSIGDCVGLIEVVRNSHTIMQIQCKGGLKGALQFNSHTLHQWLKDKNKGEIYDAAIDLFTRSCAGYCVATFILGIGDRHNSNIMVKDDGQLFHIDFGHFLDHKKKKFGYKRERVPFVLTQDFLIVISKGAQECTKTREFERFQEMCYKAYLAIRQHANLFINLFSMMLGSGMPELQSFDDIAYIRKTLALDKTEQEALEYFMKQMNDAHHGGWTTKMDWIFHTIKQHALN
Sequence of PI3Kα (P27986 whole entry partner): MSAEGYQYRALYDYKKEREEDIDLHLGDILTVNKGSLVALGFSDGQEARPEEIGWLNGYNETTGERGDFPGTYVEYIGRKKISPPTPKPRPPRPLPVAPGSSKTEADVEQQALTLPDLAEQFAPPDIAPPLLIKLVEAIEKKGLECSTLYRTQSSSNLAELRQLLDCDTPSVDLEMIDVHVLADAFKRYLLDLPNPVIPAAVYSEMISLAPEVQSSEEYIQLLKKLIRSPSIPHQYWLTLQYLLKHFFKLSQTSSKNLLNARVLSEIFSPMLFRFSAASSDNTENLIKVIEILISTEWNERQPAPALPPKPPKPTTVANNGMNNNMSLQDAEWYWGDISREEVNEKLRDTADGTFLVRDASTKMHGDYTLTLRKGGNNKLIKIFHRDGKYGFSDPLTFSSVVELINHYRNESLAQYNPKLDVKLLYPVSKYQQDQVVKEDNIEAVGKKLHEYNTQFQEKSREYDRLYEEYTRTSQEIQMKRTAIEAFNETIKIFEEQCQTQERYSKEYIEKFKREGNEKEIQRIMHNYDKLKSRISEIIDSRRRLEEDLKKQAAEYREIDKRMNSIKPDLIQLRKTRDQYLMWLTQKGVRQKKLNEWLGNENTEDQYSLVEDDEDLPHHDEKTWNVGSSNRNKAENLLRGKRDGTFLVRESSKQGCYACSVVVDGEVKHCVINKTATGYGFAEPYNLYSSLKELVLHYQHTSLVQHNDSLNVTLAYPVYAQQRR

| Compound | IC50 [1, 3] | Ki [2] | IC50 ([1]; read-out: U87Cell IC50) |
| --- | --- | --- | --- |
| Cc1nc(N)nc(-c2cc(CN3CCN(S(C)(=O)=O)CC3)cnc2Nc2cc[nH]n2)n1 [Example 244, 4-(2-(1H-Pyrazol-3-Ylamino)-5-((4-(Methylsulfonyl)Piperazin-1-yl)Methyl)Pyridin-3-yl)-6-Methyl-1,3,5-Triazin-2-Amine] | 1490 nM | 1460 nM |  |
| Cc1nc(N)nc(-c2cc(CN3CCN(S(C)(=O)=O)CC3)cnc2Nc2cncnc2)n1 [Example 38, 4-Methyl-6-(5-((4-(Methylsulfonyl)Piperazin-1-yl)Methyl)-2-(Pyrimidin-5-Ylamino)Pyridin-3-yl)-1,3,5-Triazin-2-Amine] | 145 nM | 17 nM |  |
| COc1ccc(Nc2ncc(C3=CCNCC3)cc2-c2nc(C)nc(N)n2)cn1 [Example 249, 4-(2-(6-Methoxypyridin-3-Ylamino)-5-(1,2,3,6-Tetrahydropyridin-4-yl)Pyridin-3-yl)-6-Methyl-1,3,5-Triazin-2-Amine] |  | 21 nM | 88 nM |
| Cc1nc(N)nc(-c2cc(CN3CCN(S(C)(=O)=O)CC3)cnc2Nc2ccc3scnc3c2)n1 [Example 240, N-(3-(4-Amino-6-Methyl-1,3,5-Triazin-2-yl)-5-((4-(Methylsulfonyl)Piperazin-1-yl)Methyl)Pyridin-2-yl)Benzo[D]Thiazol-5-Amine] | 43 nM | 8 nM |  |
| COc1ccc(Nc2ncc(CN3CCN(S(C)(=O)=O)CC3)cc2-c2cc(N)nc(C)n2)cn1 [Example 178, 6-(2-(6-Methoxypyridin-3-Ylamino)-5-((4-(Methylsulfonyl)Piperazin-1-yl)Methyl)Pyridin-3-yl)-2-Methylpyrimidin-4-Amine] | 50 nM | 6 nM |  |
| Cc1nc(N)nc(-c2cc(Cl)cnc2NC2CCOCC2)n1 [Example 188, 4-(5-Chloro-2-(Tetrahydro-2H-Pyran-4-Ylamino)Pyridin-3-yl)-6-Methyl-1,3,5-Triazin-2-Amine] | > 10000 nM | 2080 nM |  |
| COc1ccc(Nc2ncc(CNc3ccncc3)cc2-c2nc(C)nc3[nH]cnc23)cn1 [Example 81, N-(6-methoxypyridin-3-yl)-3-(2-methyl-9H-purin-6-yl)-5-((pyridin-4-ylamino)methyl)pyridin-2-amine] | 509 nM | 42 nM |  |
| Cc1nc(N)cc(-c2nc3ccccc3nc2Nc2cccc3[nH]ncc23)n1 [Example 180, 3-(6-Amino-2-Methylpyrimidin-4-yl)-N-(1H-Indazol-4-yl)Quinoxalin-2-Amine] | 1570 nM | 124 nM |  |
| COc1ccc(Nc2ncc(CN3CCN(S(C)(=O)=O)C[C@H]3C)cc2-c2nc(C)nc(N)n2)cn1 [Example 158, (R)-4-(2-(6-Methoxypyridin-3-Ylamino)-5-((2-Methyl-4-(Methylsulfonyl)Piperazin-1-yl)Methyl)Pyridin-3-yl)-6-Methyl-1,3,5-Triazin-2-Amine] | 16 nM | 7 nM |  |
| COc1ccc(Nc2ncc(CNC(C)C)cc2-c2nc(C)nc3[nH]cnc23)cn1 [Example 135, 5-((isopropylamino)methyl)-N-(6-methoxypyridin-3-yl)-3-(2-methyl-9H-purin-6-yl)pyridin-2-amine] | 435 nM | 120 nM |  |
| Cc1nc(N)nc(-c2cc(CN3CCN(S(C)(=O)=O)CC3)cnc2Nc2cnc(O)c(F)c2)n1 [Example 161, 5-(3-(4-Amino-6-Methyl-1,3,5-Triazin-2-yl)-5-((4-(Methylsulfonyl)Piperazin-1-yl)Methyl)Pyridin-2-Ylamino)-3-Fluoropyridin-2-ol] | 73 nM | 36 nM |  |
| Cc1nc(N)nc(-c2cc(CN3CCNCC3)cnc2Nc2ccc3[nH]cnc3c2)n1 [Example 261, N-(3-(4-Amino-6-Methyl-1,3,5-Triazin-2-yl)-5-(Piperazin-1-Ylmethyl)Pyridin-2-yl)-1H-Benzo[D]Imidazol-5-Amine] | 2720 nM | 69 nM |  |
| Cc1nc(N)nc(-c2cc([C@@H](C)N3CCN(S(C)(=O)=O)CC3)cnc2Nc2ccc(Cl)nc2)n1 [Example 309, (R)-4-(2-(6-chloropyridin-3-ylamino)-5-(1-(4-(methylsulfonyl)piperazin-1-yl)ethyl)pyridin-3-yl)-6-methyl-1,3,5-triazin-2-amine] | 46 nM | 44 nM |  |
| COc1ccc(Nc2ncc(N3CCC[C@@H]3CO)cc2-c2nc(C)nc3[nH]cnc23)cn1 [Example 101, ((2R)-1-(6-(6-Methoxypyridin-3-Ylamino)-5-(2-Methyl-9H-Purin-6-yl)Pyridin-3-yl)Pyrrolidin-2-yl)Methanol] | 293 nM | 40 nM |  |

Now from value to compound, other results behind:

| IC50 [1, 3] | Ki [2] | Compound | IC50 ([1]; read-out: U87Cell IC50) |
| --- | --- | --- | --- |
| 1100 nM | 155 nM | CC(=O)Nc1ccc(Nc2ncc(Cl)cc2-c2nc(C)nc(N)n2)cc1F [Example 266, N-(4-(3-(4-Amino-6-Methyl-1,3,5-Triazin-2-yl)-5-Chloropyridin-2-Ylamino)-2-Fluorophenyl)Acetamide] |  |
| 23 nM | 4 nM | COc1ncc(Nc2ncc(C3(O)CC3)cc2-c2nc(C)nc(N)n2)cc1F [Example 298, 1-(5-(4-Amino-6-Methyl-1,3,5-Triazin-2-yl)-6-(5-Fluoro-6-Methoxypyridin-3-Ylamino)Pyridin-3-yl)Cyclopropanol] |  |
| > 10000 nM | 23 nM | COc1ccc(Nc2ncc(C(O)c3cc(Br)ccc3S(=O)(=O)N(C)C)cc2-c2nc(C)nc(N)n2)cn1 (centres unmarked) [Example 235, 2-((5-(4-Amino-6-Methyl-1,3,5-Triazin-2-yl)-6-(6-Methoxypyridin-3-Ylamino)Pyridin-3-yl)(Hydroxy)Methyl)-4-Bromo-N,N-Dimethylbenzenesulfonamide] |  |
| 17 nM | 74 nM | COc1ncc(Nc2ncc(C3(N)CC3)cc2-c2nc(C)nc(N)n2)cc1F [Example 300, 4-(5-(1-Aminocyclopropyl)-2-(5-Fluoro-6-Methoxypyridin-3-Ylamino)Pyridin-3-yl)-6-Methyl-1,3,5-Triazin-2-Amine] |  |
| 280 nM | 12 nM | COc1ccc(Nc2ncc(-c3cncc(F)c3)cc2-c2nc(C)nc(N)n2)cn1 [Example 253, 5-(4-Amino-6-Methyl-1,3,5-Triazin-2-yl)-5′-Fluoro-N-(6-Methoxypyridin-3-yl)-3,3′-Bipyridin-6-Amine] |  |
| 108 nM | 75 nM | COc1ncc(Nc2ncc(C(O)C(C)(C)O)cc2-c2nc(C)nc(N)n2)cc1F (centres unmarked) [Example 347, 1-(5-(4-Amino-6-Methyl-1,3,5-Triazin-2-yl)-6-(5-Fluoro-6-Methoxypyridin-3-Ylamino)Pyridin-3-yl)-2-Methylpropane-1,2-Diol] |  |
| 14 nM | 20 nM | COc1ncc(Nc2ncc(CN3CCOCC3)cc2-c2nc(C)nc(N)n2)cc1F [Example 130, 4-(2-(5-fluoro-6-methoxypyridin-3-ylamino)-5-(morpholinomethyl)pyridin-3-yl)-6-methyl-1,3,5-triazin-2-amine] |  |
| 46 nM | 18 nM | COc1ccc(Nc2ncc(C(N)c3ccc(S(=O)(=O)N(C)C)cc3)cc2-c2nc(C)nc(N)n2)cn1 (centres unmarked) [Example 237, 4-(Amino(5-(4-Amino-6-Methyl-1,3,5-Triazin-2-yl)-6-(6-Methoxypyridin-3-Ylamino)Pyridin-3-yl)Methyl)-N,N-Dimethylbenzenesulfonamide] |  |
| 61 nM | 124 nM | COc1ccc(Nc2ncc(C(C)(O)C(F)(F)F)cc2-c2nc(C)nc(N)n2)cn1 (centres unmarked) [Example 320, 2-(5-(4-amino-6-methyl-1,3,5-triazin-2-yl)-6-(6-methoxypyridin-3-ylamino)pyridin-3-yl)-1,1,1-trifluoropropan-2-ol] |  |
| 37 nM | 4 nM | COc1ncc(Nc2nc(-c3cccnc3)ccc2-c2nc(C)nc(N)n2)cc1F [Example 255, 5-(4-Amino-6-Methyl-1,3,5-Triazin-2-yl)-N-(5-Fluoro-6-Methoxypyridin-3-yl)-2,3′-Bipyridin-6-Amine] |  |
| > 10000 nM | 377 nM | COc1ncc(Nc2ncc(C(C)(C)C(=O)O)cc2-c2nc(C)nc(N)n2)cc1F [Example 346, 2-(5-(4-Amino-6-Methyl-1,3,5-Triazin-2-yl)-6-(5-Fluoro-6-Methoxypyridin-3-Ylamino)Pyridin-3-yl)-2-Methylpropanoic Acid] |  |
| 941 nM | 691 nM | Cc1nc(N)nc(-c2cccnc2Nc2ccc(NC(=O)NC(C)C)nc2)n1 [Example 192, 1-(5-(3-(4-Amino-6-Methyl-1,3,5-Triazin-2-yl)Pyridin-2-Ylamino)Pyridin-2-yl)-3-Isopropylurea] |  |
| 31 nM | 27 nM | COc1ncc(Nc2ncc(CN3CCOC[C@@H]3C)cc2-c2nc(C)nc(N)n2)cc1F [Example 315, (S)-4-(2-(5-Fluoro-6-Methoxypyridin-3-Ylamino)-5-((3-Methylmorpholino)Methyl)Pyridin-3-yl)-6-Methyl-1,3,5-Triazin-2-Amine] |  |
| 16 nM | 6 nM | COc1ncc(Nc2ncc(C(C)(C)N3CCOCC3)cc2-c2nc(C)nc(N)n2)cc1F [Example 281, 4-(2-(5-Fluoro-6-Methoxypyridin-3-Ylamino)-5-(2-Morpholinopropan-2-yl)Pyridin-3-yl)-6-Methyl-1,3,5-Triazin-2-Amine] |  |
| 404 nM | 446 nM | COc1ccc(Nc2ncc(CN3CC(N)C3)cc2-c2nc(C)nc(N)n2)cn1 [Example 231, 4-(5-((3-Aminoazetidin-1-yl)Methyl)-2-(6-Methoxypyridin-3-Ylamino)Pyridin-3-yl)-6-Methyl-1,3,5-Triazin-2-Amine] |  |
| > 10000 nM | 963 nM | Cc1nc(N)nc(-c2cccnc2Nc2cccc(OC(F)F)c2)n1 [Example 164, 4-(2-(3-(Difluoromethoxy)Phenylamino)Pyridin-3-yl)-6-Methyl-1,3,5-Triazin-2-Amine] |  |
| 66 nM | 94 nM | COc1ccc(Nc2ncc(CN3CCSCC3)cc2-c2nc(C)nc(N)n2)cn1 [Example 201, 4-(2-(6-Methoxypyridin-3-Ylamino)-5-(Thiomorpholinomethyl)Pyridin-3-yl)-6-Methyl-1,3,5-Triazin-2-Amine] |  |

Source: patent publication US8772480B2, “Inhibitors of PI3 kinase and/or mTOR” (priority 2009, dated 2014)
